Drawing on ChEMBL document CHEMBL3046148, “Synthesis and biological evaluation of resveratrolcoumarin hybrid compounds as potential antitumor agents” (Med Chem Res, 2013), this text covers IC50 for 14 molecules.

What all share (type): functional, cell-based
Assay [1] relates to K562. Kind of assay: Cytotoxicity against Homo sapiens (human) K562 cells assessed as growth inhibition after 48 hr by MTT assay. (Formazan colour is commonly taken as a measure of viable cells.)
Assay [2] can be described thus: Cytotoxicity against Homo sapiens (human) HCT28 cells assessed as growth inhibition after 48 hr by MTT assay.
Assay [3] deals with MCF7. Briefly: Cytotoxicity against Homo sapiens (human) MCF7 cells assessed as growth inhibition after 48 hr by MTT assay.
Setting [4] is: Homo sapiens, MCF7, 48 h, read-out: IC50.
The mark [5] stands for this setting: Homo sapiens, 48 h, read-out: IC50.
Setting [6] is: Homo sapiens, K562, 48 h, read-out: IC50.

SMILES strings stand for the structures.

For orientation: IC50 means the midpoint of a concentration-inhibition curve. As for `COc1cc(/C=C/c2ccc3oc(=O)c(-c4ccccc4)cc3c2)cc(OC)c1` [TRANS-6-(3,5-DIMETHOXYSTYRYL)-3-PHENYLCOUMARIN], the figures for the IC50 result in assay [1] (k562), in assay [2] and in assay [3] (setting [4]) were “Not Active”, “Not Active” and 13.5 µM, respectively.
Regarding `COc1cc(/C=C/c2ccc3oc(=O)c(-c4ccc(OC)c(OC)c4)cc3c2)cc(OC)c1` [TRANS-3-(3,4-DIMETHOXYPHENYL)-6-(3,5-DIMETHOXYSTYRYL)COUMARIN], the figures for the IC50 result in assay [1] (k562), in assay [2] (setting [5]) and in assay [3] (setting [4]) were “Not Active”, 10.1 µM and 7.41 µM, respectively.
For `COc1ccc(-c2cc3cc(/C=C/c4cc(OC)cc(OC)c4)ccc3oc2=O)cc1` [TRANS-6-(3,5-DIMETHOXYSTYRYL)-3-(4-METHOXYPHENYL)COUMARIN], the IC50 in assay [1] (setting [6]) came out at 11.5 µM; in assay [2] (setting [5]) it was 19.2 µM; in assay [3] (setting [4]), 11.2 µM.
For `COc1ccc(-c2cc3cc(/C=C\c4ccccc4)ccc3oc2=O)cc1` [CIS-3-(4-METHOXYPHENYL)-6-STYRYLCOUMARIN], the IC50 result in assay [1] (k562), in assay [2] and in assay [3] (mcf7) was “Not Active” in each case.
In the case of `COc1ccc(-c2cc3cc(/C=C/c4ccccc4)ccc3oc2=O)cc1OC` [TRANS-3-(3,4-DIMETHOXYPHENYL)-6-STYRYLCOUMARIN], the IC50 result was “Not Active” in assay [1] (k562), 10.8 µM in assay [2] (setting [5]) and 14.5 µM in assay [3] (setting [4]).
For `COc1cc(/C=C\c2ccc3oc(=O)c(-c4ccccc4)cc3c2)cc(OC)c1` [CIS-6-(3,5-DIMETHOXYSTYRYL)-3-PHENYLCOUMARIN], the IC50 entry in assay [1] (k562), in assay [2] and in assay [3] (mcf7) was “Not Active” each time.
For `COc1cc(/C=C\c2ccc3oc(=O)c(-c4ccc(OC)c(OC)c4)cc3c2)cc(OC)c1` [CIS-3-(3,4-DIMETHOXYPHENYL)-6-(3,5-DIMETHOXYSTYRYL)COUMARIN], the results for the IC50 entry in assay [1] (k562), in assay [2] (setting [5]) and in assay [3] (setting [4]) were “Not Active”, 13.5 µM and 9 µM, respectively.
Consider `COc1ccc(/C=C/c2cc(OC)cc(OC)c2)cc1` [TRISMETHOXYRESVERATROL], for which the IC50 came out at 6.39 µM in assay [1] (setting [6]), 4.83 µM in assay [2] (setting [5]) and 8.41 µM in assay [3] (setting [4]).
On the same counts, the results for `COc1ccc(/C=C/c2ccc3oc(=O)c(-c4ccc(OC)c(OC)c4)cc3c2)cc1` [TRANS-3-(3,4-DIMETHOXYPHENYL)-6-(4-METHOXYSTYRYL)COUMARIN] are 8.76 µM, 7.14 µM and 4.23 µM.
Taken in the same sequence, the figures for `COc1ccc(/C=C\c2ccc3oc(=O)c(-c4ccccc4)cc3c2)cc1` [CIS-6-(4-METHOXYSTYRYL)-3-PHENYLCOUMARIN] were 3.79 µM, 10.7 µM and 10.9 µM.
On to `COc1ccc(-c2cc3cc(/C=C\c4ccccc4)ccc3oc2=O)cc1OC` [CIS-3-(3,4-DIMETHOXYPHENYL)-6-STYRYLCOUMARIN], for which the IC50 result in assay [1] (k562), in assay [2] and in assay [3] (mcf7) was “Not Active” throughout.
Take `COc1ccc(-c2cc3cc(/C=C\c4cc(OC)cc(OC)c4)ccc3oc2=O)cc1` [CIS-6-(3,5-DIMETHOXYSTYRYL)-3-(4-METHOXYPHENYL)COUMARIN]: the IC50 result in assay [1] (k562), in assay [2] and in assay [3] (mcf7) was “Not Active” in each case.
For `COc1ccc(/C=C\c2ccc3oc(=O)c(-c4ccc(OC)c(OC)c4)cc3c2)cc1` [CIS-3-(3,4-DIMETHOXYPHENYL)-6-(4-METHOXYSTYRYL)COUMARIN], the IC50 entry in assay [1] (k562), in assay [2] and in assay [3] (mcf7) was “Not Active” each time.
As to `COc1ccc(/C=C/c2ccc3oc(=O)c(-c4ccccc4)cc3c2)cc1` [TRANS-6-(4-METHOXYSTYRYL)-3-PHENYLCOUMARIN], the IC50 in assay [1] (setting [6]) worked out at 13 µM; in assay [2] (setting [5]), 3.78 µM; in assay [3] (setting [4]) it was 7.32 µM.
